Assays:
[1] = In vivo pharmacokinetics after oral gavage; details: mice
Procedure: All the experimental procedures involving animals were conducted in compliance with national and international guidelines for the handling and use of experimental animals (Authorization no. 853-2018-PR, 11 November 2018) and appropriately designed to minimize their pain or discomfort. All the animals were maintained in IVC cages under controlled conditions, with a 12/12 h dark/light cycle and free access to food and drink. For the pharmacokinetic analysis, a 20 mg/kg dose of TMA, suspended in water or dissolved in formulations A.1 and B.1, was administered to mice by oral gavage, after an overnight fast. Plasma samples (n = 3 per time point) were collected from the submandibular plexus before and 0.25, 0.5, 1, 2, 3, 4, 6, 24, and 48 h after the administration of TMA. The main PK parameters were calculated by means of the Microsoft Excel plug-in PK Solver, using standard formulae [25]. The data were analyzed using the software GraphPad Prism 8.0 (GraphPad Software Inc., San Diego, CA, USA) ver. 8.0, and, if not otherwise stated, are expressed as mean ± SD. Statistical analysis was performed using Student’s t test or one-way ANOVA, when appropriate, and p < 0.05 was considered statistically significant.
TMA was extracted from the samples by treating 100 µL of plasma with 300 µL of cold acetonitrile spiked with 80 nM of IS, and then the samples were centrifuged for 10 min at 12,000× g (Hettich Mikro 120 benchtop centrifuge) and 25 °C. 10 μL of the supernatant were injected into the UHPLC system. The quantification of TMA was carried out by external calibration of the normalized signals using a seven-point calibration curve obtained by spiking blank plasma with TMA in the range 20–3000 nM. […] The metabolites related to TMA were quantified in plasma by comparing the normalized area with the TMA calibration curve as there were no suitable analytical standards available. The data obtained should be considered semiquantitative, as it is not possible to ensure the same molar response factor for TMA and its metabolites under electrospray conditions.

[2] = Metabolic stability with human liver microsomes; type: in vitro ADME; details: 1 µM, 37 °C, NADPH, pH 7.4
Procedure: The metabolic stability of TMA was assessed by incubating the compound with human liver microsomes (HLMs) (BD Bioscience, Franklin Lakes, NJ, USA), as already described. Briefly, TMA was dissolved in DMSO (1 µM) and incubated at 37 °C for 10 and 30 min in 0.1 M phosphate buffer containing 200 µg of microsomes and 10 mM NADPH, pH 7.4. At the end of incubation, the reaction was stopped by addition of 200 µL cold acetonitrile. After centrifugation for 10 min at 12,000× g (Hettich Mikro 120 benchtop centrifuge), supernatants were collected and analyzed by means of ultra-high pressure liquid chromatography coupled to high-resolution mass spectrometry (UHPLC-HRMS) to assess metabolic stability of TMAas described in Section 2.8.1. […]
The UHPLC-HRMS system was equipped with Agilent 1260 Infinity II LC System coupled to an Agilent 6545 LC/Q-TOF mass analyzer (Agilent Technologies, Palo Alto, Santa Clara, CA, USA). […] The mobile phase gradient profile was as follows (t in min): t0–3 2% B; t3–18 2–100% B, t18–20 100% B; t20–30 0% B. The MS conditions were: electrospray (ESI) ionization in positive mode, gas temperature 325 °C, drying gas 10 L/min, nebulizer 20 psi, sheath gas temperature 400 °C, sheath gas flow 12 L/min, VCap 4000 V, nozzle voltage 0 V, fragmentor 180 V. Centroid full scan mass spectra were recorded in the range 100–1000 m/z with a scan rate of 1 spectrum/s. […]

[3] = Lipophilicity (Log p) and BCS classification from the literature; type: physicochemical; details: inferred from Log p and low water solubility
[4] = In vitro dissolution test in simplified FaSSIF and FeSSIF; type: physicochemical; details: FeSSIF compared with FaSSIF
Procedure: In vitro drug dissolution tests were performed using the USP 24 method with a dissolution apparatus 2 (Sotax AT7 Smart, Sotax, Allschwil, Switzerland) at 100 rpm. Dissolution tests were carried out under sink conditions at 37 ± 0.5 °C in 900 mL of two simplified simulated intestinal fluids to simulate the fed and fasted states. The composition of simplified FaSSIF (fasted-state simulated intestinal fluid) and FeSSIF (fed-state simulated intestinal fluid) buffers were those reported by Zoeller and Klein [24]. Samples (1 mL) were withdrawn at 5, 10, 15, 30, 45, 60, 90, 120, 240, and 300 min and the volume removed was replaced with an equal volume of temperature-equilibrated media. The samples were filtered through a 0.45 µm acetate cellulose filter and the TMA concentration was determined by HPLC-UV using the method reported in Section 2.3. The results were averaged from three replicated experiments.

[5] = Solubility of TMA in oils, surfactants, co-surfactants/co-solvents; type: physicochemical; details: 25 °C, 24 h, n = 3
Procedure: The solubility of TMA in different oils, surfactants, co-surfactants/co-solvent was determined by pouring an excess of TMA in a 2 mL glass vial containing 1 g of each excipient. The mixtures were vortexed and kept at 25 °C for 24 h, and then the samples were centrifuged at 15,000× g rpm for 10 min to remove the undissolved drug. The supernatant was diluted with a suitable solvent and the TMA was quantified by HPLC (Agilent 1220 Infinity LC, Agilent Technologies, Santa Clara, CA, USA) equipped with a UV-vis detector and a Zorbax 300SB C 18 column (4.6 × 250 mm, 5 µm, Agilent Technologies, Santa Clara, CA, USA). For the analysis of the organic solutions of TMA, a volume of 20 µL was injected into the column and a mixture of methanol and water (95:5) was used as mobile phase with a flow rate of 0.8 mL/min. Instead, for the analysis of aqueous solutions, 100 µL of sample was injected and a mixture 75:25 of methanol and water was used as mobile phase at a flow rate of 0.9 mL/min. The UV was set at a wavelength of 251 nm.

[6] = 20 mg/kg TMA, oral gavage, overnight fast, plasma TMA, mean ± S.D.

Row | TMA-related metabolites in mouse plasma ([1]; 20 mg/kg TMA oral, semiquantitative, TMA calibration curve, LOD about 10 nM) | Compound | CL/F ([1]; 20 mg/kg TMA, oral gavage, overnight fast, mean ± S.D.) | AUC0-inf [1, 6] | Cmax [1, 6] | Tmax [1, 6] | t1/2 [1, 6] | Initial amount of TMA metabolized by HLM enzymes ([2]; 10 min) | Degradation of TMA by HLM enzymes ([2]; 30 min) | BCS classification system class [3] | Amount of free TMA dissolved [4] | TMA Solubility ([5]; in Capryol PGMC (co-surfactant)) | TMA Solubility ([5]; in Cremophor EL (surfactant)) | TMA Solubility ([5]; in Ethanol (co-solvent)) | TMA Solubility ([5]; in Labrafac Lipophile WL1349 (oil)) | TMA Solubility ([5]; in Lauroglycol FCC (co-surfactant)) | TMA Solubility ([5]; in Maisine CC (oil)) | TMA Solubility ([5]; in Transcutol HP (co-solvent)) | TMA Solubility ([5]; in Tween 80 (surfactant))
1 |  | Cc1cc(=O)oc2c1cc(C)c1occ(C)c12 [TMA, 4,6,4′-trimethylangelicin] | 0.073 ± 0.029 mL/h/g | 0.29783 ± 0.11913 µM·h | 186 ± 21.1 nM | 0.38 ± 0.18 h | 1.71 ± 0.16 h | 67 ± 15% | 90 ± 15% | class II | increases significantly | 7346 ± 380 µg/mL | 9091 ± 217 µg/mL | 2509 ± 52 µg/mL | 4639 ± 170 µg/mL | 6484 ± 92 µg/mL | 6340 ± 377 µg/mL | 9568 ± 131 µg/mL | 7040 ± 120 µg/mL
2 | main metabolite | TMA-D |  |  |  |  |  |  |  |  |  |  |  |  |  |  |  |  | 

Source: paper PMC9506254, “Self-Emulsifying Formulations to Increase the Oral Bioavailability of 4,6,4′-Trimethylangelicin as a Possible Treatment for Cystic Fibrosis” (Pharmaceutics, 2022)
